According to US4336389A, “2-Substituted-4-aryl-5-thiazolecarboxylic acids and their derivatives as safening agents” (Monsanto Company, priority 1978, dated 1982):

Assays:
Format in all cases: in vivo
[1] = test system: rice; experiment: Safening effect against butachlor injury to rice, safening agent and herbicide incorporated in soil (Example 15, Table I); set-up: key: herbicide-alone + safener-alone effect (max 100) minus combined effect; conditions: safening agent 8.96 kg/h; butachlor 4.48 kg/h; ~21 days
Method: (§1) A good grade of top soil is placed in a container and compacted to a depth of approximately 1.27 cm. from the top of said container. A predetermined number of rice seeds to be tested are placed on top of the soil. A quantity of soil sufficient to substantially fill the container is measured and placed in a second container. A measured quantity of the safening agent dispersed or dissolved in a suitable carrier is applied to the soil in the second container. A measured quantity of butachlor dispersed or dissolved in a suitable carrier is then sprayed on the soil already treated with the safening agent. The soil containing the safening agent and herbicide is thoroughly mixed. This mixing is sometimes referred to as incorporation of the herbicide and safening agent into the soil. The mixing or incorporation provides a substantially uniform distribution of the safening agent and herbicide throughout the soil. The seeds are covered with the soil containing the safening agent and herbicide and the pans are leveled. The pans are then placed on a sand bench in the greenhouse and watered from below as needed. The plants are observed at the end of approximately 21 days and the results in terms of percent inhibition of each seed lot are recorded. For each test series a pan of plants is also prepared containing no herbicide and no safening agent as a control. Additionally, for each test, a pan of plants is prepared with soil covering the seed containing no herbicide and only the measured amount of safening agent being incorporated into the soil covering the seeds to ascertain any herbicidal effect of the safening agent alone. For each series of tests the herbicidal effect of the herbicide is observed from pans of plants treated with the same quantity of herbicide alone. The "safening effect" is determined by adding the hericidal effect of the herbicide when applied alone to the herbicidal effect of the safening agent when applied alone (in no instance, however, will this sum be greater than 100) and substracting from that the herbicidal effect obtained when the herbicide and safening agent are incorporated into the soil as discussed above.
Table I summarizes the results obtained when the compounds of the invention were tested in accordance with the procedure of Example 15.

[2] = test system: rice; experiment: Safening effect against butachlor injury to pre-soaked rice, soil surface application, flooded pots (Example 16, Table II); set-up: key: herbicide injury alone + safener injury alone (max 100) minus combined injury; conditions: safening agent 1.12 kg/h, ~21 days, mean of two replicates
Method: as §1
A good grade of top soil is placed in a plastic pot. A measured quantity of the safening agent dispersed or dissolved in a suitable carrier is sprayed on the soil surface. A measured quantity of butachlor herbicide dissolved in a solvent is sprayed on the soil surface. Presoaked rice is seeded into the pots that were previously flooded with water and the water level lowered below the soil surface for one week. The pots are flooded at least up to the soil surface for the duration of the test. The plants are observed at the end of approximately 21 days and the results in terms of the percent inhibition of rice is recorded. As in Example 15, for each test pots are prepared containing soil treated only with butachlor. For each test, pots are also prepared containing soil treated only with the safening agent. Pots are also prepared in which the soil is not treated with either the herbicide or the safening agent. The safening effect is determined in accordance with Example 15.
Table II summarizes the results obtained when the compounds of the invention were tested in accordance with the procedure of Example 16.

[3] = test system: Barnyard Grass; experiment: Percent inhibition of barnyard grass, mixture incorporated in soil cover layer (Example 19, Table V); conditions: ~21 days
Excerpt: (§2) 5.08 cm. of a good grade of top soil is placed in a 7.62 cm. deep plastic pot. A predetermined number of weed seeds and rice seeds are applied to the soil surface. Butachlor and ethyl 2-chloro-4-phenyl-5-thiazolecarboxylate are applied to a soil cover layer as a mixture and incorporated by shaking the treated soil cover layer in a plastic bag. The cover layers were then placed on the pre-seeded pots. The plants are observed at the end of approximately 21 days and the results in terms of percent inhibition recorded. For each test, pots are prepared containing soil treated only with butachlor. For each test, pots are prepared containing soil treated only with the safening agent. Pots are also prepared with untreated soil.

[4] = test system: Crabgrass; experiment: Percent inhibition of crabgrass, mixture incorporated in soil cover layer (Example 19, Table V); conditions: ~21 days
Excerpt: as §2

[5] = test system: Panicum; experiment: Percent inhibition of panicum, mixture incorporated in soil cover layer (Example 19, Table V); conditions: ~21 days
Excerpt: as §2

[6] = test system: Foxtail; experiment: Percent inhibition of foxtail, mixture incorporated in soil cover layer (Example 19, Table V); conditions: ~21 days
Excerpt: as §2

[7] = test system: rice; experiment: Percent inhibition of rice, mixture incorporated in soil cover layer (Example 19, Table V); conditions: ~21 days
Excerpt: as §2

[8] = safening agent 8.96 kg/h + butachlor 2.24 kg/h
[9] = safening agent 8.96 kg/h + butachlor 4.48 kg/h
[10] = safening agent 8.96 kg/h + butachlor 8.96 kg/h

Compound: CCOC(=O)c1sc(Cl)nc1-c1ccccc1 [Example 1, Ethyl 2-Chloro-4-Phenyl-5-Thiazolecarboxylate]
- Safening Effect [1]: 75
- Safening Effect ([2]; butachlor 0.14 kg/h): 78
- Safening Effect ([2]; butachlor 0.56 kg/h): 99
- Percent Inhibition, Barnyard Grass [3, 8]: 100%
- Percent Inhibition, Barnyard Grass [3, 9]: 100%
- Percent Inhibition, Barnyard Grass [3, 10]: 100%
- Percent Inhibition, Barnyard Grass ([3]; safening agent alone 8.96 kg/h): 0%
- Percent Inhibition, Crabgrass [4, 8]: 100%
- Percent Inhibition, Crabgrass [4, 9]: 100%
- Percent Inhibition, Crabgrass [4, 10]: 100%
- Percent Inhibition, Crabgrass ([4]; safening agent alone 8.96 kg/h): 0%
- Percent Inhibition, Panicum [5, 8]: 100%
- Percent Inhibition, Panicum [5, 9]: 100%
- Percent Inhibition, Panicum [5, 10]: 100%
- Percent Inhibition, Panicum ([5]; safening agent alone 8.96 kg/h): 0%
- Percent Inhibition, Foxtail [6, 8]: 100%
- Percent Inhibition, Foxtail [6, 9]: 100%
- Percent Inhibition, Foxtail [6, 10]: 100%
- Percent Inhibition, Foxtail ([6]; safening agent alone 8.96 kg/h): 0%
- Percent Inhibition, Rice [7, 8]: 8%
- Percent Inhibition, Rice [7, 9]: 43%
- Percent Inhibition, Rice [7, 10]: 45%
- Percent Inhibition, Rice ([7]; safening agent alone 8.96 kg/h): 0%
